{"source": "patent US20020155192A1", "about": "“Yeast transport isoforms” (priority 2000, published 2002)", "assay_type_in_all_cases": "biochemical", "key": {"Odc1p [1]": {"target": "T1, Odc1p (Saccharomyces cerevisiae, UniProt Q03028)", "T1 construct": "made in house; host or cells: S. cerevisiae odc1Δodc2Δ (YPH499 background) carrying pYES2-based pODC1; purified from mitochondria on Ni-NTA agarose", "T1 sequence (Q03028 1-310)": "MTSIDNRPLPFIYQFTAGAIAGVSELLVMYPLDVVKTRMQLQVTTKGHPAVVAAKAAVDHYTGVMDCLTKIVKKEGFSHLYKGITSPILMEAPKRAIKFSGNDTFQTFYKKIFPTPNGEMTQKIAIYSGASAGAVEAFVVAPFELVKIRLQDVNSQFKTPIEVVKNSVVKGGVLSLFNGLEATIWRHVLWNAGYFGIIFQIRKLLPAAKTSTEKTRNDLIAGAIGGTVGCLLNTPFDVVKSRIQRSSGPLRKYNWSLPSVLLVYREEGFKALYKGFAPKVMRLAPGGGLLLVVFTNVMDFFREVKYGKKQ", "experiment": "Effect of inhibitors and external compounds on the [14C]oxoglutarate/oxoglutarate exchange by proteoliposomes reconstituted with Odc1p", "settings": "Odc1p; for Inhibition (%) of [14C]oxoglutarate/oxoglutarate exchange: 20 mM internal oxoglutarate, 0.4 mM [14C]oxoglutarate, 45 seconds, inhibitors 4 mM, except mercurials 10 μM, carboxyatractyloside 0.1 mM, N-ethylmaleimide and α-cyanocinnamate 2 mM; for inhibition of [14C]oxoglutarate/oxoglutarate exchange (in words): Table III"}, "Odc1p [2]": {"target": "T1, Odc1p", "experiment": "Efflux of [14C]oxoglutarate from proteoliposomes reconstituted with recombinant Odc1p", "settings": "10 mM oxoglutarate with 30 mM pyridoxal 5′-phosphate and 10 mM bathophenanthroline added together", "protocol": "FIG. 4. Efflux of [^14C]oxoglutarate from proteoliposomes. Proteoliposomes were reconstituted with recombinant Odc1p in the presence of 20 mM oxoglutarate, and then the internal substrate pool was labelled by carrier-mediated exchange equilibration. After removal of external substrate by Sephadex G-75 chromatography, the efflux of [^14C]oxoglutarate was started by adding buffer F alone (●) or 10 mM oxoglutarate (▪), or 10 mM oxoglutarate, 30 mM pyridoxal 5′-phosphate and 10 mM bathophenanthroline (□) in the same buffer.\nExternal substrate was removed from proteoliposomes on a Sephadex G-75 column preequilibrated with buffer F (50 mM NaCl and 10 mM PIPES, pH 7.0). […] The external radioactivity was removed on Sephadex G-75 and the internal radioactivity was measured. […] The initial rate of transport was calculated in mmol/min per g protein from the time course of isotope equilibration (13). […] For efflux measurements, the internal substrate pool of the proteoliposomes was made radioactive by carrier-mediated exchange equilibration (13) with 0.1 mM [^14C]oxoglutarate added at high specific radioactivity. After 60 min, the residual external radioactivity was removed by passing the proteoliposomes again through a column of Sephadex G-75. […]"}, "Odc2p": {"target": "T2, Odc2p (Saccharomyces cerevisiae, UniProt Q99297)", "T2 construct": "made in house; host or cells: S. cerevisiae odc1Δodc2Δ (YPH499 background) carrying pYES2-based pODC2; purified from mitochondria on Ni-NTA agarose", "T2 sequence (Q99297 1-307)": "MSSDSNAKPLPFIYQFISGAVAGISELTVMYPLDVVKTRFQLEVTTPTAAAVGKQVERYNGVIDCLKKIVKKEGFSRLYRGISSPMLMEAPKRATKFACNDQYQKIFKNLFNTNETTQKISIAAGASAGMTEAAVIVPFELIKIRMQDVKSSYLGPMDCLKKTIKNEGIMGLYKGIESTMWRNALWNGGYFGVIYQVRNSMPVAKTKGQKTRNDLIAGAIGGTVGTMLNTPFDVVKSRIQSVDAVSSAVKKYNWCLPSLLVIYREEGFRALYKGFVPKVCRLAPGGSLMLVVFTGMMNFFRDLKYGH", "experiment": "Effect of inhibitors and external compounds on the [14C]oxoglutarate/oxoglutarate exchange by proteoliposomes reconstituted with Odc2p", "settings": "Odc2p; for inhibition of [14C]oxoglutarate/oxoglutarate exchange (in words): Table III"}}, "data": [{"smiles": "c1ccc(-c2ccnc3c2ccc2c(-c4ccccc4)ccnc23)cc1", "note": "[Bathophenanthroline]", "values": [{"measurement": "Inhibition (%) of [14C]oxoglutarate/oxoglutarate exchange", "setting": "Odc1p [1]", "value": 97, "unit": "%"}, {"measurement": "inhibition of [14C]oxoglutarate/oxoglutarate exchange (in words)", "setting": "Odc1p [1]", "value": "inhibited strongly"}, {"measurement": "effect on efflux of [14C]oxoglutarate induced by external oxoglutarate (in words)", "setting": "Odc1p [2]", "value": "prevented completely"}, {"measurement": "Inhibition (%) of [14C]oxoglutarate/oxoglutarate exchange", "setting": "Odc2p; 20 mM internal oxoglutarate, 0.4 mM [14C]oxoglutarate, 45 seconds, inhibitors 4 mM, except mercurials 10 μM, carboxyatractyloside 0.1 mM, N-ethylmaleimide and α-cyanocinnamate 2 mM", "value": 89, "unit": "%"}, {"measurement": "inhibition of [14C]oxoglutarate/oxoglutarate exchange (in words)", "setting": "Odc2p", "value": "inhibited strongly"}]}, {"smiles": "Cc1ncc(COP(=O)(O)O)c(C=O)c1O", "note": "[Pyridoxal 5′-phosphate]", "values": [{"measurement": "Inhibition (%) of [14C]oxoglutarate/oxoglutarate exchange", "setting": "Odc1p [1]", "value": 92, "unit": "%"}, {"measurement": "inhibition of [14C]oxoglutarate/oxoglutarate exchange (in words)", "setting": "Odc1p [1]", "value": "inhibited strongly"}, {"measurement": "effect on efflux of [14C]oxoglutarate induced by external oxoglutarate (in words)", "setting": "Odc1p [2]", "value": "prevented completely"}, {"measurement": "inhibition of [14C]oxoglutarate/oxoglutarate exchange (in words)", "setting": "Odc2p", "value": "inhibited strongly"}]}]}
